The text below walks through data of ChEMBL document CHEMBL5678807, “A selective jumonji H3K27 demethylase inhibitor modulates the proinflammatory macrophage response” (Nature, 2012).

Series [1] has as its target T1, Lysine-specific demethylase 4A (Homo sapiens, UniProt O75164). Briefly: Inhibition of human JmjD2a by Alphascreen assay. For orientation: Alpha assays give light when donor and acceptor beads are brought close together.
For series [2], the target named is T1, Lysine-specific demethylase 4A. Briefly: Inhibition of human JmjD2a using H3K27(me3) as substrate preincubated for 10 mins followed by substrate addition and measured after 7 mins in presence of alpha-KG by RapidFire Mass Spectrometry.
In series [3] the target is Lysine-specific demethylase 5C (Homo sapiens, UniProt P41229). Briefly: Inhibition of human Jarid1c by MALDI-TOF analysis.
Chain of Lysine-specific demethylase 5C (P41229 whole entry): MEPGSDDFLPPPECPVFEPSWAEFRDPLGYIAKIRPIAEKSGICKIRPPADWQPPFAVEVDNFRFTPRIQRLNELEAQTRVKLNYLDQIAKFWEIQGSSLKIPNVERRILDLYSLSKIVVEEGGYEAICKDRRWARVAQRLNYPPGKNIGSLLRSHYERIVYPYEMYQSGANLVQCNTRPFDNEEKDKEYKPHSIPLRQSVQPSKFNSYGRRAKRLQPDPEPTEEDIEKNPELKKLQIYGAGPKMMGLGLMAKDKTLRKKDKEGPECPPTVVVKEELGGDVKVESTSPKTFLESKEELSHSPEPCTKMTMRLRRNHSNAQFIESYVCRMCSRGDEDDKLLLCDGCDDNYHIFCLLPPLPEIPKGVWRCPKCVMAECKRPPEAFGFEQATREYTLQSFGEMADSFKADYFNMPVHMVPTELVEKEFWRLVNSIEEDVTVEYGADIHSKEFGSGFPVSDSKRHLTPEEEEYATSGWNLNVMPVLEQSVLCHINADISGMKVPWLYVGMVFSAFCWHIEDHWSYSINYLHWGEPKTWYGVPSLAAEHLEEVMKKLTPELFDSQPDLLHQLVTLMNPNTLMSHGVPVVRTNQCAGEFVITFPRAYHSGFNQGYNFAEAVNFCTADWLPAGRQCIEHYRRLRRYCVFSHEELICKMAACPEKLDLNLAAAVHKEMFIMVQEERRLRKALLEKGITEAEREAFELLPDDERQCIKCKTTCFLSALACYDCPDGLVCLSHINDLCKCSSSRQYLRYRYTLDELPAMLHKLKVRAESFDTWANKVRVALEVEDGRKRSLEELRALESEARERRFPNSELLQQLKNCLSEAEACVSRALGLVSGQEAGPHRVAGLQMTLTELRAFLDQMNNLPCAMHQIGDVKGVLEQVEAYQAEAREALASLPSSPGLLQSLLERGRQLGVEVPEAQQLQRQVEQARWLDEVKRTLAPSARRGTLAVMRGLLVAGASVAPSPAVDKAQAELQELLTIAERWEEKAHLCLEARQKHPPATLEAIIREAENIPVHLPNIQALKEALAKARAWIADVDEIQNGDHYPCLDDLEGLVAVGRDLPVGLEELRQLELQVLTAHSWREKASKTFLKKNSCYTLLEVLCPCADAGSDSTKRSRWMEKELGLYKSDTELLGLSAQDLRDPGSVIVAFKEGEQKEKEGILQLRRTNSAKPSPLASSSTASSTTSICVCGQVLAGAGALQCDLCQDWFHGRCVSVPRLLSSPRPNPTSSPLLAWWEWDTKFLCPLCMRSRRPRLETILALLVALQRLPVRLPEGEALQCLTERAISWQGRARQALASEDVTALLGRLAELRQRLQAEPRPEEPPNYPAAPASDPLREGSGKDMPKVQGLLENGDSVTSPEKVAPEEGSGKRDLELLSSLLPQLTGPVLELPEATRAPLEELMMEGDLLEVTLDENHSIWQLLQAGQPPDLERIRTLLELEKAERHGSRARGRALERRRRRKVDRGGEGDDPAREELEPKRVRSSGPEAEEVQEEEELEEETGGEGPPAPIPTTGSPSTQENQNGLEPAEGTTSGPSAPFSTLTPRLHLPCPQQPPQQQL
Series [4] deals with Lysine-specific demethylase 6A (Homo sapiens, UniProt O15550). Briefly: Inhibition of human UTX using Biotin-KAPRKQLATKAARK(me3)SAPATGG as substrate by MALDI-TOF analysis.
Chain of Lysine-specific demethylase 6A (O15550 whole entry): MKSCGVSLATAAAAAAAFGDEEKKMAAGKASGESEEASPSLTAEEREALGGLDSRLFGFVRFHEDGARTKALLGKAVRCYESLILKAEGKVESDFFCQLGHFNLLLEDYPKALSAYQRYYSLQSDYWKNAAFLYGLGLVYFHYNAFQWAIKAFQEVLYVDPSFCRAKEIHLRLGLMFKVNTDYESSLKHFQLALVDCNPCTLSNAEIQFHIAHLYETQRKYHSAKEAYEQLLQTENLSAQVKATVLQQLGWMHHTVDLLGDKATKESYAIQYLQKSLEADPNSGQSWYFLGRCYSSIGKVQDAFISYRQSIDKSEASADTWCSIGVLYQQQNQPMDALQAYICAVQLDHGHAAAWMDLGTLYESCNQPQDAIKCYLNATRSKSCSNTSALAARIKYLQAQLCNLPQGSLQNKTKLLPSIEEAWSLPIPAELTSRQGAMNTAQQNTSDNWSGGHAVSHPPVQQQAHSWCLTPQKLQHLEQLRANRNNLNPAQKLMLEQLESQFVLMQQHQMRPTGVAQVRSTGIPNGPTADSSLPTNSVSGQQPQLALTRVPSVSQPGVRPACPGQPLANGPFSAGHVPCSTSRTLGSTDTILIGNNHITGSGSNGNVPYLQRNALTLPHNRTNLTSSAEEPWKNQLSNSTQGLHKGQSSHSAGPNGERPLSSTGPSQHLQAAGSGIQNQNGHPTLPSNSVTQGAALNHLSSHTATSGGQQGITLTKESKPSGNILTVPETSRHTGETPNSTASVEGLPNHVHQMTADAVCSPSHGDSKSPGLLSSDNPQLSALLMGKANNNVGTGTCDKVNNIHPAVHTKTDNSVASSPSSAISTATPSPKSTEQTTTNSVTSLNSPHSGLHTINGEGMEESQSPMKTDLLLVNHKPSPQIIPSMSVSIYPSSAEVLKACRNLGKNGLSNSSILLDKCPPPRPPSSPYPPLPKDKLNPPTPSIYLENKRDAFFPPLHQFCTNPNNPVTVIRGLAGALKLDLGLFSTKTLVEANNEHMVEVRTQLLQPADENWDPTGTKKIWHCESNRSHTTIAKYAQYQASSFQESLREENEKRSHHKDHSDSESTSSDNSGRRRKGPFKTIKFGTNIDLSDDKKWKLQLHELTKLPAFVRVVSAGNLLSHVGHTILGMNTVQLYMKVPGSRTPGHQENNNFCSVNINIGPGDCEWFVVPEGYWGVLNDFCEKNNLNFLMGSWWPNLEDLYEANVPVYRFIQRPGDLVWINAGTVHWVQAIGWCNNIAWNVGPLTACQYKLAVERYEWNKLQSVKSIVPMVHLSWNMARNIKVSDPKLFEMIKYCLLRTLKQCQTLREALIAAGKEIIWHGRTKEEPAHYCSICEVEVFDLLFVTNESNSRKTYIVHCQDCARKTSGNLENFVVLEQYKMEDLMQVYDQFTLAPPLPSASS
In series [5] the target is Lysine-specific demethylase 4E (Homo sapiens, UniProt B2RXH2). Briefly: Inhibition of human JmjD2e using H3K27(me3) as substrate preincubated for 10 mins followed by substrate addition and measured after 7 mins in presence of alpha-KG by RapidFire Mass Spectrometry.
Chain of Lysine-specific demethylase 4E (B2RXH2 whole entry): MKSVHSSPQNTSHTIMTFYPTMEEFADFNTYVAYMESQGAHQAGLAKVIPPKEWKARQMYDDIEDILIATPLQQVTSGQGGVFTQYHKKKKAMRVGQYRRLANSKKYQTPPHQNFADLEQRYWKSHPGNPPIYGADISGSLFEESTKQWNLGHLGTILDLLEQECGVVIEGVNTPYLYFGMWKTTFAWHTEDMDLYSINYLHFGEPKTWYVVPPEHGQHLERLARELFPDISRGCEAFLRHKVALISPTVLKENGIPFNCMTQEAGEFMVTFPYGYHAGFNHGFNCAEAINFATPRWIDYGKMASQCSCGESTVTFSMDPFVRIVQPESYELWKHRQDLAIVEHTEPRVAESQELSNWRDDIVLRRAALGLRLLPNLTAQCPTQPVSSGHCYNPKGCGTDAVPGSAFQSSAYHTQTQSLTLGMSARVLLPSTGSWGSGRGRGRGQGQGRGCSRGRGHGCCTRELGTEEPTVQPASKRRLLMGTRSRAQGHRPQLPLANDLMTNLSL
Series [6] can be described thus: Prodrug conversion in human primary macrophage lysates assessed as formation of GSK-J2 at 30 uM measured after 1 hr by RP LC-MS/MS analysis. Type of series: ADME, subcellular.

T1 sequence (O75164 whole entry): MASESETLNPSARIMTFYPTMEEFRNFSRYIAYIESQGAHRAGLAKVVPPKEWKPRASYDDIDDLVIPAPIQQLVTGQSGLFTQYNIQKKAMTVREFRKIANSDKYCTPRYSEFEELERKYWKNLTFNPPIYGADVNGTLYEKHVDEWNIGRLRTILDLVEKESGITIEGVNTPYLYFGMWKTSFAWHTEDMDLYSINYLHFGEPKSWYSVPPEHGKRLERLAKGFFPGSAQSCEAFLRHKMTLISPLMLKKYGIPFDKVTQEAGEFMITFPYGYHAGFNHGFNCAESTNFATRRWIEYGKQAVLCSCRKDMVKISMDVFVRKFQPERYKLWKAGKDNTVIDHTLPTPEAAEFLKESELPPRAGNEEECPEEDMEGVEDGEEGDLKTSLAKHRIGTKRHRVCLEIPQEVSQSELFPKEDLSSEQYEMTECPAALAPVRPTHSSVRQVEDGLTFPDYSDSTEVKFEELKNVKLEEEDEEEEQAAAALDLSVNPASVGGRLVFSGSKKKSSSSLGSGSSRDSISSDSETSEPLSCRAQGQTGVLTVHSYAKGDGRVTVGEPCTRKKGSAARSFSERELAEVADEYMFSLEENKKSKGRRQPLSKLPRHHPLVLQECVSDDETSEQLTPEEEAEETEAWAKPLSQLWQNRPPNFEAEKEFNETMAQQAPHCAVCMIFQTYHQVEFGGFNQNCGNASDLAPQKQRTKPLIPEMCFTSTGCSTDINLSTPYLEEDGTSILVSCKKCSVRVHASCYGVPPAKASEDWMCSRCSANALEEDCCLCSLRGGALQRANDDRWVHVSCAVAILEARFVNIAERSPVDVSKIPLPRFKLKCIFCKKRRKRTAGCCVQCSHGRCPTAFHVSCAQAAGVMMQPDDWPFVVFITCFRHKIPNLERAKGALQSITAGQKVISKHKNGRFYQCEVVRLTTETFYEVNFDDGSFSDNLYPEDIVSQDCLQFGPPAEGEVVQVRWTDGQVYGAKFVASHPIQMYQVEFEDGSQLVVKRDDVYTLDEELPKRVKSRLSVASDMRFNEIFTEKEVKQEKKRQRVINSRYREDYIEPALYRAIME

For `O=C(O)CCNc1cc(N2CCc3ccccc3CC2)nc(-c2ccccn2)n1`, the IC50 (as a rule, the concentration needed to halve the response being measured) in series [1] is 44.3 µM; in series [2] it was over 100 µM; in series [3], over 100 µM; in series [4], 56 µM.
Consider `O=C(O)CCNc1cc(N2CCc3ccccc3CC2)nc(-c2cccnc2)n1`, for which, in series [5], the IC50 was over 100 µM.
In the case of `CCOC(=O)CCNc1cc(N2CCc3ccccc3CC2)nc(-c2cccnc2)n1`, the Drug metabolism in series [6] came out at 17.4 µM.
